# According to US20080112955A1, “METHOD AND COMPOSITION FOR PREVENTING PAIN IN SICKLE CELL PATIENTS” (TRF PHARMA, INC., priority 2002, published 2008):
# B1: trypsin: protease used at 0.02% to pretreat erythrocytes (protein, UniProt P00760 24-246, looked up)
# Serine protease 1: IVGGYTCGANTVPYQVSLNSGYHFCGGSLINSQWVVSAAHCYKSGIQVRLGEDNINVVEGNEQFISASKSIVHPSYNSNTLNNDIMLIKLKSAASLNSRVASISLPTSCASAGTQCLISGWGNTKSSGTSYPDVLKCLKAPILSDSSCKSAYPGQITSNMFCAGYLEGGKDSCQGDSGGPVVCSGKLQGIVSWGSGCAQKNKPGVYTKVCNYVSWIKQTIASN
# Experiments:
# [1] = test system: human umbilical vein endothelial cells (HUVECs); test: static gravity adherence assay with dip rinse: erythrocyte adherence to endothelial monolayers; type: cell-based; conditions: for percent adherence of nonsickle RBCs to thrombin-treated endothelium with agent / percent adherence of nonsickle RBCs to untreated endothelium with agent / percent adherence of sickle cells to thrombin-treated endothelium with agent / percent adherence of sickle cells to untreated endothelium with agent: mean±SEM, 100% = nonsickle RBCs on untreated HUVECs, mAbs 1:200, sLeX 100 μM, sialidase 0.1 U/mL; for percent adherence of nonsickle RBCs to thrombin-treated endothelium with agent / percent adherence of nonsickle RBCs to untreated endothelium with agent / percent adherence of sickle cells to thrombin-treated endothelium with agent / percent adherence of sickle cells to untreated endothelium with agent / reduction of adherence of nonsickle RBCs to untreated endothelium: sLac 500 μM; for reduction of adherence of nonsickle RBCs to thrombin-treated endothelium / reduction of adherence of nonsickle RBCs to untreated endothelium / reduction of adherence of sickle cells to thrombin-treated endothelium / reduction of adherence of sickle cells to untreated endothelium: static, vs no agent, sialidase 0.1 U/mL on RBCs; for reduction of adherence of nonsickle RBCs to thrombin-treated endothelium / reduction of adherence of sickle cells to thrombin-treated endothelium: HUVECs 0.1 U/mL thrombin 5 min; for reduction of adherence of nonsickle RBCs to thrombin-treated endothelium / reduction of adherence of sickle cells to thrombin-treated endothelium / reduction of adherence of sickle cells to untreated endothelium: mAbs 1:200, sLac 500 μM; for reduction of adherence of nonsickle RBCs to untreated endothelium / reduction of adherence of sickle cells to untreated endothelium: untreated HUVECs; for reduction of adherence of nonsickle RBCs to untreated endothelium: mAbs 1:200 on HUVECs; for reduction of adherence of sickle cells to thrombin-treated endothelium / reduction of adherence of sickle cells to untreated endothelium: sickle RBCs; for reduction of adherence compared with sLac present: 100 μM sLeX
# Experimental: Thrombin treatment of human umbilical vein endothelial cells (HUVECs) and the static gravity adherence assay with dip rinse were performed as previously described. When 90% confluent, HUVECs (Clonetics, San Diego, Calif.) were treated with 0.1 U/mL thrombin (Sigma Chemicals, St Louis, Mo.) or medium alone for 5 minutes before assaying erythrocyte adherence. Adherent RBCs were counted microscopically in 8 randomly selected 0.15-mm2 fields for each study condition. The adherence data may be presented as percent adherence where 100% is the mean adherence of nonsickle RBCs to untreated HUVECs.
# Because of potential modulatory effects of heparin on adherence, the static adherence assay was used to compare the adhesivity of sickle cells and autologous plasma according to whether they were prepared with citrate anticoagulant or with heparin. […] The contribution of P-selectin to thrombin-enhanced adherence was determined by comparing the effects on adherence of exposing HUVECs to no antibody, a 1:200 dilution of nonblocking P-selectin monoclonal antibodies (mAbs) AC1.2 (BD Pharmingen, San Diego, Calif.), or a 1:200 dilution of blocking P-selectin mAb 9E1 (R & D Systems, Minneapolis, Minn.).
# (§1) To determine whether sialic acid on erythrocytes is a recognition determinant for P-selectin, prior to testing RBC adherence the erythrocytes were treated with sialidase using a published method. Packed RBCs were mixed with an equal volume of buffer or 0.1 U/mL Vibrio cholerae sialidase (Calbiochem, San Diego).
# (§2) For each experiment mean adherence was set arbitrarily at 100% for the control data. The mean adherence of data derived from perturbations of control conditions were calculated as a percentage relative to the control. The average of the means from replicate experiments was then calculated. The uncertainty of the estimate of the means from the data distributed in each set is described as SEM. An SEM of 0% resulted when control data sets were normalized to 100%. We used the paired one-tailed Student test to compare changes in adhesion resulting from different perturbations of the system.
# Siglec-6-Ig chimera = test: nonstatic rotatory adherence assay: erythrocytes on immobilized control Siglec-6-Ig chimera; type: cell-based, human; conditions: mean±SEM, RBCs pretreated with sialidase
# Experimental: (§3) 400 ng bovine serum albumin (BSA; Sigma), a sialic acid-binding lectin (Siglec)-6-Ig chimera, mutated Siglec-7-Ig chimera, or P-selectin-Ig chimera was immobilized on microtiter wells. […] These chimeras were applied to the wells in 10 mM carbonate buffer overnight and then blocked with 0.5% BSA in Hanks buffered salt solution (University of California, San Francisco, Cell Culture Facility) before incubation with RBCs using a published rotatory adhesion assay. Erythrocyte adherence to BSA, Siglec-6, mutant Siglec-7, or P-selectin was measured as the number of RBCs observed in 8 random 0.04-mm2 fields for each condition. The adherence data are presented as percent adherence where 100% is the mean number of untreated nonsickle erythrocytes/field in a well in which BSA or Siglec was immobilized.
# as §1, with “Diego). […]” for “Diego).”
# For each experiment mean adherence was set arbitrarily at 100% for the control data. The mean adherence of data derived from perturbations of control conditions were calculated as a percentage relative to the control. The average of the means from replicate experiments was then calculated. […]
# RBCs = test: hemolysis of sialidase-treated RBCs by colorimetric spectrophotometry; type: cell-based, human; conditions: 0.1 U/mL sialidase
# Experimental: as §1, with “Diego). […] Efficacy of sialidase on RBCs was confirmed by agglutination with peanut extract lectin (Arachis hypogea lectin, Sigma).” for “Diego).”
# P-selectin-Ig chimera = test: nonstatic rotatory adherence assay: erythrocytes on immobilized P-selectin-Ig chimera; type: cell-based, human; conditions: for percent adherence of nonsickle cells to P-selectin with agent / percent adherence of sickle cells to P-selectin with agent: mean±SEM, 100% = untreated nonsickle erythrocytes on BSA or Siglec, 5 mM EDTA or sialidase; for reduction of adherence of nonsickle cells to P-selectin / reduction of adherence of sickle cells to P-selectin: 5 mM EDTA present or RBCs pretreated with 0.1 U/mL sialidase
# Experimental: as §3
# as §1, with “Diego). […] Efficacy of sialidase on RBCs was confirmed by agglutination with peanut extract lectin (Arachis hypogea lectin, Sigma).” for “Diego).”
# as §2
# [2] = test system: thrombin-treated HUVECs (endothelial cell P-selectin); test: parallel plate flow adhesion of sickle erythrocytes to HUVECs; type: cell-based, human; conditions: n=10
# Source text: Blood samples obtained from subjects with sickle cell disease and from healthy control subjects, as approved by the Committee on Human Research at the University of California-San Francisco (UCSF), were drawn into citrate. The buffy coat was removed after the initial centrifugation and after each of 3 subsequent washes of the remaining erythrocytes in phosphate buffered saline (PBS) and one wash in HAH buffer (Hanks balanced salt solution [HBSS; UCSF Cell Culture Facility, San Francisco, Calif.], 1% bovine serum albumin [BSA, Fraction V; Sigma, St Louis, Mo.], 50 mM HEPES [N-2-hydroxyethylpiperazine-N′-2- ethanesulfonic acid; Sigma], pH 7.40). Erythrocytes to be used in flow adhesion studies were suspended to a 0.5% hematocrit. To assess for leukocyte contamination, the erythrocyte preparation was exposed to 10 μg/mL rhodamine 6G, which stains leukocytes but not erythrocytes, and washed 3 times in HAH. No leukocytes were detected in the erythrocyte suspensions prepared using the above protocol. […]
# Rolling cells were defined as those sickle cells that were in the same microscopic focal plane as the immobile surface or endothelial monolayer and moving at a distinctly slower velocity than the bulk flow. Those cells determined to be rolling were in contact with the substrata throughout their entire transit through the field of observation, which excludes those cells in brief transient contact with the substrate. Data on rolling adherence are expressed as the mean numbers of rolling red blood cells (cells/mm^2) and the mean rolling velocity of these cells (mm/s) from multiple experiments; error is expressed as SEM. The microscopic field in which adherent cells were measured has an area of 0.15 mm^2 and a volume of 0.038 mm^3. […] The velocity of rolling cells was determined by the time required for a cell to roll across the 0.5-mm field (0.5 mm/s). […] Data on firm adhesion are expressed as the mean numbers of firmly adherent red blood cells in the area described above. Statistical significance was determined using the Student t test. […]
# [3] = HUVECs treated with 0.1 U/mL thrombin for 5 minutes vs untreated
# [4] = erythrocytes pretreated with 0.02% trypsin, data not shown
Molecule,percent adherence of nonsickle RBCs to thrombin-treated endothelium with agent [1],percent adherence of nonsickle RBCs to untreated endothelium with agent [1],percent adherence of sickle cells to thrombin-treated endothelium with agent [1],percent adherence of sickle cells to untreated endothelium with agent [1],reduction of adherence of nonsickle RBCs to thrombin-treated endothelium [1],reduction of adherence of nonsickle RBCs to untreated endothelium [1],reduction of adherence of sickle cells to thrombin-treated endothelium [1],reduction of adherence of sickle cells to untreated endothelium [1],percent adherence of nonsickle cells to P-selectin with agent (P-selectin-Ig chimera),percent adherence of sickle cells to P-selectin with agent (P-selectin-Ig chimera),reduction of adherence of nonsickle cells to P-selectin (P-selectin-Ig chimera),reduction of adherence of sickle cells to P-selectin (P-selectin-Ig chimera),also measured
"CC(=O)N[C@H]1[C@H]([C@H](O)[C@H](O)CO)O[C@@](O[C@H]2[C@@H](O)[C@@H](CO)O[C@@H](O[C@H]3[C@H](O)[C@@H](O)C(O)O[C@@H]3CO)[C@@H]2O)(C(=O)O)C[C@@H]1O (stereo partly shown) [sLac, 3′-sialyl-lactose]",162%±28%,105%±15%,304%±74%,144%±44%,Neither did sLac reduce significantly,not reduced significantly,Neither did sLac reduce significantly,not reduced significantly,–,–,–,–,–
sialidase: Vibrio cholerae sialidase (Calbiochem) used to treat RBCs,68%±15%,53%±13%,282%±133%,191%±67%,81%,47%,63%,36%,88%±11%,182%+17%,no significant effect,33%,percent adherence of nonsickle cells to Siglec-6 after sialidase (Siglec-6-Ig chimera; nonsickle cells): 79%±13%; percent adherence of sickle cells to Siglec-6 after sialidase (Siglec-6-Ig chimera; sickle cells): 157%±18%; hemolysis (RBCs): No hemolysis was detected
thrombin,–,–,–,–,–,–,–,–,–,–,–,–,"decrease in rolling velocities of sickle cells [2, 3]: 26%; increase in number of rolling sickle cells [2, 3]: 54%; increase in number of firmly adhered sickle cells ([2]; thrombin treatment of HUVECs vs untreated): 130%"
"CC(=O)NC1C(O)CC(OC2C(O)C(CO)OC(OC3C(CO)OC(O)C(NC(C)=O)C3OC3OC(C)C(O)C(O)C3O)C2O)(C(=O)O)OC1C(O)C(O)CO (stereo not shown) [sLeX, sialyl Lewis X (sLeX) tetrasaccharide]",82%±41%,55%±12%,196%±38%,91±8%,–,–,–,–,–,–,–,–,"reduction of adherence compared with sLac present ([1]; nonsickle cells, thrombin-treated endothelial cells): 49%; reduction of adherence compared with sLac present ([1]; nonsickle cells, untreated endothelial cells, not significant): ~48%; reduction of adherence compared with sLac present ([1]; sickle cells, thrombin-treated endothelial cells): 36%; reduction of adherence compared with sLac present ([1]; sickle cells, untreated endothelial cells, not significant): ~37%"
O=C(O)CN(CCN(CC(=O)O)CC(=O)O)CC(=O)O [EDTA],–,–,–,–,–,–,–,–,95%±11%,177%±18%,35%,32%,–
B1,–,–,–,–,–,–,–,–,–,–,–,–,"adhesion of sickle and nonsickle cells to immobilized P-selectin (P-selectin-Ig chimera; [4]): did not reduce significantly; adherence of sickle and nonsickle cells to untreated and thrombin-treated endothelial cells [1, 4]: reduced substantially"
